Assay results: patent US4849441A, “Isoindolin-1-one derivative and antiarrhythmic agent” (Kyowa Hakko Kogyo Co., Ltd., priority 1986, dated 1989)

system: chloroform-induced arrhythmia in mice; experiment: Mice chloroform-induced arrhythmia test; assay type: in vivo, mice of dd strain; conditions: Mus musculus, po, oral administration, effective if < 720 pulses/min, Probit method, read-out: Antiarrhythmic Activity A: chloroform induced arrhythmia in mice (ED50)
Procedure: The antiarrhythmic activity was examined by arrhythmia test induced with chloroform in mice and by arrhythmia test induced by ligation of dog coronary artery. (A) Mice chloroform-induced arrhythmia test: Using mice of dd strain, weighing 18 to 22 g and fasting and abstaining from water for 4 to 5 hours, an antiarrhythmic effect was evaluated in accordance with the method of Block [Life Science, 28, 2623 (1981)]. That is, after orally administrating each compound, the mice were put in a chloroform atmosphere and taken out after respiratory standstill. Electrocardiogram was measured by the standard limb induction method; in the case when frequent pulse exceeding 720 pulses/min. is continued for 30 seconds or longer, it was judged ineffective and in the case of a heart beat number being less than 720 pulses/min., it was judged effective. ED50 was determined by the Probit method.

SMILES	ED50 [mg/kg]
CCN(CC)CCN1C(=O)c2ccccc2C1c1cc(Cl)ccc1N (stereo not drawn) [Compound 11, 3-(2-Amino-5-chlorophenyl)-2-(2-diethylaminoethyl)-isoindolin-1-one]	> 100
CCN(CC)CCN1C(=O)c2ccccc2C1c1c(C)ccc(C)c1N (stereo not drawn) [Compound 17, 3-(2-Amino-3,6-dimethylphenyl)-2-(2-diethylaminoethyl)-isoindolin-1-one]	< 25
CCN(CC)CCN1C(=O)c2ccccc2C1c1ccc(N(C)C)cc1 (stereo not drawn) [Compound 18, 2-(2-Diethylaminoethyl)-3-(4-dimethylaminophenyl)-isoindolin-1-one]	23
CCN(CC)CCN1C(=O)c2ccccc2C1c1cc(C)cc(C)c1N (stereo not drawn) [Compound 26, 3-(2-Amino-3,5-dimethylphenyl)-2-(2-diethylaminoethyl)-isoindolin-1-one]	< 25
CCN(CC)CCN1C(=O)c2ccccc2C1c1cc(C#N)ccc1N (stereo not drawn) [Compound 31, 3-(2-Amino-5-cyanophenyl)-2-(2-diethylaminoethyl)-isoindolin-1-one]	30
CCN(CC)CCN1C(=O)c2ccccc2C1c1cc(F)ccc1N (stereo not drawn) [Compound 32, 3-(2-Amino-5-fluorophenyl)-2-(2-diethylaminoethyl)-isoindolin-1-one]	25 to 50
CCN(CC)CCN1C(=O)c2ccccc2C1c1cccc(C(C)C)c1N (stereo not drawn) [Compound 33, 3-(2-Amino-3-isopropylphenyl)-2-(2-diethylaminoethyl)-isoindolin-1-one]	14
CCN1CCCC1CN1C(=O)c2ccccc2C1c1cc(C#N)ccc1N (stereo not drawn) [Compound 35]	50 to 100
CC(C)NCCN1C(=O)c2ccccc2C1c1cc(C#N)ccc1N (stereo not drawn) [Compound 36, 3-(2-Amino-5-cyanophenyl)-2-(2-isopropylaminoethyl)-isoindolin-1-one]	50 to 100
CCNCCN1C(=O)c2ccccc2C1c1cc(C#N)ccc1N (stereo not drawn) [Compound 38, 3-(2-Amino-5-cyanophenyl)-2-(2-ethylaminoethyl)-isoindolin-1-one]	50

same assay, conditions: oral administration, effective if < 720 pulses/min, Probit method

SMILES	Antiarrhythmic Activity A: chloroform induced arrhythmia in mice (ED50) [mg/kg]
CCN(CC)CCN1C(=O)c2ccccc2C1c1cc(C#N)ccc1N (stereo not drawn) [Compound 31, 3-(2-Amino-5-cyanophenyl)-2-(2-diethylaminoethyl)-isoindolin-1-one]	19

system: coronary artery ligation-induced arrhythmia in dog; experiment: Dog coronary artery ligation-induced arrhythmia test; assay type: in vivo, dogs; conditions: Canis lupus familiaris, intravenous, 16 h after ligation, effective if 50% or more of total pulses restored to sinus rhythm, dose effective in 50% or more cases, read-out: Antiarrhythmic Activity B: coronary artery ligation induced arrhythmia in dog (MED)
Text: The antiarrhythmic activity was examined by arrhythmia test induced with chloroform in mice and by arrhythmia test induced by ligation of dog coronary artery.
(B) Dog coronary artery ligation-induced arrhythmia test:
Using dogs weighing 7 to 12 kg, coronary artery ligation-induced arryhthmia occurred in accordance with the Harris method [Circulation, 1, 1318 (1950)]. Namely, the left fifth costa was subjected to thoraco-laparotomy.After the pericardium was incised, the left fore descending branch of the coronary artery was exfoliated around the first side branch and ligated. Sixteen hours after, a test compound was intravenously administered to dogs with multiple ventricular arrhythmic pulses being 90% or more than the total pulses. Then, electrocardiogram was recorded without anesthesia under free movement, and a case where 50% or more of the total pulses was restored to sinus rhythm was judged effective.

SMILES	minimal effective dose [mg/kg]
CCN(CC)CCN1C(=O)c2ccccc2C1c1cc(Cl)ccc1N (stereo not drawn) [Compound 11, 3-(2-Amino-5-chlorophenyl)-2-(2-diethylaminoethyl)-isoindolin-1-one]	5
CCN(CC)CCN1C(=O)c2ccccc2C1c1ccc(N(C)C)cc1 (stereo not drawn) [Compound 18, 2-(2-Diethylaminoethyl)-3-(4-dimethylaminophenyl)-isoindolin-1-one]	2.5
CCN(CC)CCN1C(=O)c2ccccc2C1c1cc(C#N)ccc1N (stereo not drawn) [Compound 31, 3-(2-Amino-5-cyanophenyl)-2-(2-diethylaminoethyl)-isoindolin-1-one]	2.5
CCNCCN1C(=O)c2ccccc2C1c1cc(C#N)ccc1N (stereo not drawn) [Compound 38, 3-(2-Amino-5-cyanophenyl)-2-(2-ethylaminoethyl)-isoindolin-1-one]	5

system: dd, male mice; experiment: Acute toxicity test (mortality 7 days after administration); assay type: in vivo; conditions: mortality at 7 days, minimum lethal dosage
Procedure: Groups each consisting of three dd, male mice having body weights of 20±1 g were used, and the compound of the present invention was intraperitoneally administered. Mortality 7 days after the administration was observed and the minimum lethal dosage (MLD) was determined.

SMILES	Acute Toxicity (MLD) i.p. [mg/kg]
CCN(CC)CCN1C(=O)c2ccccc2C1c1cc(Cl)ccc1N (stereo not drawn) [Compound 11, 3-(2-Amino-5-chlorophenyl)-2-(2-diethylaminoethyl)-isoindolin-1-one]	> 100
CCN(CC)CCN1C(=O)c2ccccc2C1c1c(C)ccc(C)c1N (stereo not drawn) [Compound 17, 3-(2-Amino-3,6-dimethylphenyl)-2-(2-diethylaminoethyl)-isoindolin-1-one]	> 100
CCN(CC)CCN1C(=O)c2ccccc2C1c1ccc(N(C)C)cc1 (stereo not drawn) [Compound 18, 2-(2-Diethylaminoethyl)-3-(4-dimethylaminophenyl)-isoindolin-1-one]	50
CCN(CC)CCN1C(=O)c2ccccc2C1c1cc(C)cc(C)c1N (stereo not drawn) [Compound 26, 3-(2-Amino-3,5-dimethylphenyl)-2-(2-diethylaminoethyl)-isoindolin-1-one]	100
CCN(CC)CCN1C(=O)c2ccccc2C1c1cc(F)ccc1N (stereo not drawn) [Compound 32, 3-(2-Amino-5-fluorophenyl)-2-(2-diethylaminoethyl)-isoindolin-1-one]	> 100
CCN(CC)CCN1C(=O)c2ccccc2C1c1cccc(C(C)C)c1N (stereo not drawn) [Compound 33, 3-(2-Amino-3-isopropylphenyl)-2-(2-diethylaminoethyl)-isoindolin-1-one]	50
CCN1CCCC1CN1C(=O)c2ccccc2C1c1cc(C#N)ccc1N (stereo not drawn) [Compound 35]	> 100
CC(C)NCCN1C(=O)c2ccccc2C1c1cc(C#N)ccc1N (stereo not drawn) [Compound 36, 3-(2-Amino-5-cyanophenyl)-2-(2-isopropylaminoethyl)-isoindolin-1-one]	> 100
CCNCCN1C(=O)c2ccccc2C1c1cc(C#N)ccc1N (stereo not drawn) [Compound 38, 3-(2-Amino-5-cyanophenyl)-2-(2-ethylaminoethyl)-isoindolin-1-one]	> 100

system: dd, male mice; experiment: as above; assay type: in vivo; conditions: mortality at 7 days, minimum lethal dosage; remark: another data set of the same source

SMILES	Acute Toxicity (MLD) p.o. [mg/kg]
CCN(CC)CCN1C(=O)c2ccccc2C1c1cc(Cl)ccc1N (stereo not drawn) [Compound 11, 3-(2-Amino-5-chlorophenyl)-2-(2-diethylaminoethyl)-isoindolin-1-one]	> 300
CCN(CC)CCN1C(=O)c2ccccc2C1c1c(C)ccc(C)c1N (stereo not drawn) [Compound 17, 3-(2-Amino-3,6-dimethylphenyl)-2-(2-diethylaminoethyl)-isoindolin-1-one]	300
CCN(CC)CCN1C(=O)c2ccccc2C1c1ccc(N(C)C)cc1 (stereo not drawn) [Compound 18, 2-(2-Diethylaminoethyl)-3-(4-dimethylaminophenyl)-isoindolin-1-one]	100
CCN(CC)CCN1C(=O)c2ccccc2C1c1cc(C)cc(C)c1N (stereo not drawn) [Compound 26, 3-(2-Amino-3,5-dimethylphenyl)-2-(2-diethylaminoethyl)-isoindolin-1-one]	200
CCN(CC)CCN1C(=O)c2ccccc2C1c1cc(F)ccc1N (stereo not drawn) [Compound 32, 3-(2-Amino-5-fluorophenyl)-2-(2-diethylaminoethyl)-isoindolin-1-one]	300
CCN(CC)CCN1C(=O)c2ccccc2C1c1cccc(C(C)C)c1N (stereo not drawn) [Compound 33, 3-(2-Amino-3-isopropylphenyl)-2-(2-diethylaminoethyl)-isoindolin-1-one]	100
CCN1CCCC1CN1C(=O)c2ccccc2C1c1cc(C#N)ccc1N (stereo not drawn) [Compound 35]	> 300
CC(C)NCCN1C(=O)c2ccccc2C1c1cc(C#N)ccc1N (stereo not drawn) [Compound 36, 3-(2-Amino-5-cyanophenyl)-2-(2-isopropylaminoethyl)-isoindolin-1-one]	> 300
CCNCCN1C(=O)c2ccccc2C1c1cc(C#N)ccc1N (stereo not drawn) [Compound 38, 3-(2-Amino-5-cyanophenyl)-2-(2-ethylaminoethyl)-isoindolin-1-one]	> 300
